Measurements published in patent US20240016941A1, “COMBINATION THERAPY” (priority 2020, published 2024).

Key:
[1] = target: T1, purified LasB protein from P. aeruginosa (Pseudomonas aeruginosa, UniProt P14756); assay: Fluorometric assay to determine Ki (purified LasB, Abz-Ala-Gly-Leu-Ala-p-Nitro-Benzyl-Amide substrate); type: biochemical
T1 construct: purchased Merck or Charles River Laboratories
Method: (§1) Experiments were therefore conducted (1) to measure the potency of inhibition of compounds of the invention against purified Pseudomonas aeruginosa LasB enzyme and also experiments were conducted (2) to measure the ability of compounds of the invention to inhibit LasB-catalysed elastin degradation. The first assay uses a commercial fluorescent synthetic peptide and purified LasB enzyme. The LasB hydrolysis kinetics are measured allowing the determination of the IC50 and Ki of the inhibitors; the second is a more physiological assay using dialysed Pseudomonas aeruginosa supernatant as source of enzyme, plus its natural substrate Elastin. It is an “end point assay” that determines the percentage of LasB inhibition by each compound for one particular time point and inhibitor concentration. Technical details are described below:
This assay uses commercially available substrate (Abz-Ala-Gly-Leu-Ala-p-Nitro-Benzyl-Amide (Ex: 340 nm, Em: 415 nm) from Peptide International) and purified LasB protein from P. aeruginosa (provided by Merck or Charles River Laboratories). It is performed to determine LasB elastase activity and assess compound inhibition in 96-well plate format. All compounds of Formula (I) were assessed using the method described below.
Method: 10 to 140 ng/ml purified LasB is incubated with 250 μM Abz-Ala-Gly-Leu-Ala-p-Nitro-Benzyl-Amide in 50 mM Tris-HCl pH 7.4, 2.5 mM CaCl2), 0.01% of Triton X100 at 37° C. LasB activity (corresponding to fluorescence emission induced by substrate hydrolysis) is measured over 30 min at 37° C. with a fluorescence plate reader such as the Perkin Elmer Envision or similar. Different range of inhibitor concentrations are routinely assessed depending of inhibitor potency from 0.0016 to 200 μM (2-fold dilutions series) in order to determine IC50.
The equation used to calculate the Ki from IC50 is: Ki=IC50/(1+([S]/Km)) where [S]=250 μM and Km=214 μM.

[2] = target: T2, LasB elastase activity of dialysed supernatant from P. aeruginosa PAO1 (Pseudomonas aeruginosa, UniProt P14756); assay: Elastin Congo-Red assay to determine % inhibition (dialysed PAO1 supernatant); type: biochemical; conditions: read-out: Elastin hydrolysis % inhibition @ 25 μM inhibitor concentration
T2 construct: Culture supernatants are recovered by centrifugation and filtrated through a 0.22 μM filter; endogenous in cells; host or cells: P. aeruginosa strain PAO1, culture supernatant, filtered and dialysed
T2 sequence (P14756 198-498): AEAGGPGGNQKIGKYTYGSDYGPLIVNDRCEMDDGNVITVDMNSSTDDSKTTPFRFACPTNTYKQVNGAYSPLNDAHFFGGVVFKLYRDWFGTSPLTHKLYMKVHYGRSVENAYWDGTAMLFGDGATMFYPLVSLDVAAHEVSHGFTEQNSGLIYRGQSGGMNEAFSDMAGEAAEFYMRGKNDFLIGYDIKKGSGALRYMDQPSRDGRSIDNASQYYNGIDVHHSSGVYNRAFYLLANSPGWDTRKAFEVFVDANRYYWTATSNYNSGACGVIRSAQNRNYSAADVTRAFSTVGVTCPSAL
Method: as §1
The Elastin assay uses as source of enzyme dialysed supernatant from P. aeruginosa PAO1 and the Elastin Congo-Red as substrate. The natural LasB substrate, elastin, is complexed with the congo-red dye (Elastin Congo-Red, ECR). The elastolysis activity from the culture supernatant will degrade elastin and release the congo-red dye into the supernatant. This red dye release can be measured with a spectrophotometer.
Method: To determine LasB elastase activity and assess compound inhibition, an overnight culture of P. aeruginosa strain PAO1 is diluted in LB medium. After reaching an OD600nm of 0.6, this culture is diluted and incubated for additional 18-24 hours in a shaking incubator. Culture supernatants are recovered by centrifugation and filtrated through a […] filter. These supernatants are dialysed (filtration molecules <20 kDa) into a 50 mM Tris-HCl pH 7.4, 2.5 mM CaCl2 solution at 4° C. under agitation for 24 hours. Supernatant dialysed is then mixed volume/volume with the ECR suspension (20 mg/mL of ECR in 100 mM Tris-HCl pH 7.4 buffer supplemented with 1 mM CaCl2)) supplemented with Triton X100 (final concentration of 0.01%) in presence of DMSO (positive control) and/or different concentrations of compound (routinely 50 to 1.56 μM). As a negative control, the dialysed supernatant is replaced by Tris-HCl solution (50 mM Tris-HCl pH 7.4, 2.5 mM CaCl2). The mixed reaction is then incubated overnight in a 37° C. shaking incubator. The reaction supernatant is recovered by centrifugation and the release of congo-red is measured by its absorbance at 495 nm (OD495nm).
Percentage inhibition is determined using the following equation:
((OD495 nm value of positive control−OD495nm value of negative control)−(OD495nm value of treated supernatant−OD495nm value of negative control))/(OD495nm value of positive control−OD495nm value of negative control)×100.

T1 sequence (P14756 198-498): as above

SMILES	Ki [1] [nM]	inhibition at 25 µM [2] [%]
COc1cc2sc(CNC(=O)C3(CC(=O)[O-])Cc4cc(F)c(F)cc4C3)nc2cc1C(=O)N1CC([N+](C)(C)C)C1 [Example 43, 2-[5,6-difluoro-2-[[6-methoxy-5-[3-(trimethylammonio)azetidine-1-carbonyl]-1,3-benzothiazol-2-yl]methylcarbamoyl]indan-2-yl]acetate]	50 to 200	60 to 80
COc1cc2sc(CNC(=O)C3(CC(=O)O)Cc4ccccc4C3)nc2cc1S(=O)(=O)N1CCC(N(C)C)CC1 [Example 46, 2-[2-[[5-[[4-(dimethylamino)-1-piperidyl]sulfonyl]-6-methoxy-1,3-benzothiazol-2-yl]methylcarbamoyl]indan-2-yl]acetic acid]	50 to 200	60 to 80
COc1cc2sc(CNC(=O)C3(CC(=O)O)Cc4ccccc4C3)nc2cc1C(=O)N1CCN(C)CC1 [Example 33, 2-[2-[[6-methoxy-5-(4-methylpiperazine-1-carbonyl)-1,3-benzothiazol-2-yl]methylcarbamoyl]indan-2-yl]acetic acid]	< 50	60 to 80
COc1cc2sc(CNC(=O)C3(CC(=O)[O-])Cc4cc(F)c(F)cc4C3)nc2cc1OCC(=O)N1CC[N+](C)(C)CC1 [Example 14, 2-[2-[[5-[2-(4,4-dimethylpiperazin-4-ium-1-yl)-2-oxo-ethoxy]-6-methoxy-1,3-benzothiazol-2-yl]methylcarbamoyl]-5,6-difluoro-indan-2-yl]acetate]	50 to 200	60 to 80
COc1cc2sc(CNC(=O)C3(CC(=O)[O-])Cc4ccccc4C3)nc2cc1OCC1CC[N+](C)(C)CC1 [Example 17, 2-[2-[[5-[(1,1-dimethylpiperidin-1-ium-4-yl)methoxy]-6-methoxy-1,3-benzothiazol-2-yl]methylcarbamoyl]indan-2-yl]acetate]	50 to 200	60 to 80
COc1cc2sc(CNC(=O)C3(CC(=O)O)Cc4cc(F)c(F)cc4C3)nc2cc1OCC(=O)N1CCN(C)CC1 [Example 12, 2-[5,6-difluoro-2-[[6-methoxy-5-[2-(4-methylpiperazin-1-yl)-2-oxo-ethoxy]-1,3-benzothiazol-2-yl]methylcarbamoyl]indan-2-yl]acetic acid]	50 to 200	60 to 80
COc1cc2sc(CNC(=O)C3(CC(=O)[O-])Cc4ccccc4C3)nc2cc1OCCC[N+]1(C)CCOCC1 [Example 16, 2-[2-[[6-methoxy-5-[3-(4-methylmorpholin-4-ium-4-yl)propoxy]-1,3-benzothiazol-2-yl]methylcarbamoyl]indan-2-yl]acetate]	< 50	60 to 80
CN1CCN(CCOc2ccc3sc(CNC(=O)C4(CC(=O)O)Cc5ccccc5C4)nc3c2)CC1 [Example 25, 2-[2-[[5-[2-(4-methylpiperazin-1-yl)ethoxy]-1,3-benzothiazol-2-yl]methylcarbamoyl]indan-2-yl]acetic acid]	200 to 10000	60 to 80
NC1CCN(S(=O)(=O)c2cccc3sc(CNC(=O)C4(CC(=O)O)Cc5ccccc5C4)nc23)C1 (stereo not drawn) [Example 6, 2-[2-[[4-(3-aminopyrrolidin-1-yl)sulfonyl-1,3-benzothiazol-2-yl]methylcarbamoyl]indan-2-yl]acetic acid]	50 to 200	60 to 80
N#Cc1ccc2nc(CNC(=O)C3(CC(=O)O)Cc4ccccc4C3)sc2c1 [Example 48, 2-[2-[(6-cyano-1,3-benzothiazol-2-yl)methylcarbamoyl]indan-2-yl]acetic acid]	50 to 200	60 to 80
O=C(O)CC1(C(=O)NCc2nc3c(S(=O)(=O)N4CCCC4)cccc3s2)Cc2ccccc2C1 [Example 3, 2-[2-[(4-pyrrolidin-1-ylsulfonyl-1,3-benzothiazol-2-yl)methylcarbamoyl]indan-2-yl]acetic acid]	50 to 200	60 to 80
COc1cc2sc(CNC(=O)C3(CC(=O)[O-])Cc4cc(F)c(F)cc4C3)nc2cc1OCC[N+]1(C)CCOCC1 [Example 13, 2-[5,6-difluoro-2-[[6-methoxy-5-[2-(4-methylmorpholin-4-ium-4-yl)ethoxy]-1,3-benzothiazol-2-yl]methylcarbamoyl]indan-2-yl]acetate]	50 to 200	60 to 80
COc1cc2sc(CNC(=O)C3(CC(=O)O)Cc4ccccc4C3)nc2cc1S(=O)(=O)N1CCN(C)CC1 [Example 45, 2-[2-[[6-methoxy-5-(4-methylpiperazin-1-yl)sulfonyl-1,3-benzothiazol-2-yl]methylcarbamoyl]indan-2-yl]acetic acid]	50 to 200	60 to 80
COc1cc2sc(CNC(=O)C3(CC(=O)[O-])Cc4cc(F)c(F)cc4C3)nc2cc1C(=O)N1CC[N+](C)(C)CC1 [Example 35, 2-[2-[[5-(4,4-dimethylpiperazin-4-ium-1-carbonyl)-6-methoxy-1,3-benzothiazol-2-yl]methylcarbamoyl]-5,6-difluoro-indan-2-yl]acetate]	50 to 200	60 to 80
CC[N+](C)(CC)CCCOc1cc2nc(CNC(=O)C3(CC(=O)[O-])Cc4ccccc4C3)sc2cc1OC [Example 18, 2-[2-[[5-[3-[diethyl(methyl)ammonio]propoxy]-6-methoxy-1,3-benzothiazol-2-yl]methylcarbamoyl]indan-2-yl]acetate]	< 50	60 to 80
N#Cc1ccc2sc(CNC(=O)C3(CC(=O)O)Cc4ccccc4C3)nc2c1 [Example 49, 2-[2-[(5-cyano-1,3-benzothiazol-2-yl)methylcarbamoyl]indan-2-yl]acetic acid]	50 to 200	60 to 80
COc1cc2sc(CNC(=O)C3(CC(=O)O)Cc4cc(F)c(F)cc4C3)nc2cc1OCCN1CCOCC1 [Example 10, 2-[5,6-difluoro-2-[[6-methoxy-5-(2-morpholinoethoxy)-1,3-benzothiazol-2-yl]methylcarbamoyl]indan-2-yl]acetic acid]	< 50	> 80
COc1cc2sc(CNC(=O)C3(CC(=O)[O-])Cc4ccccc4C3)nc2cc1C(=O)N1CCOC(C[N+](C)(C)C)C1 (stereo not drawn) [Example 41, 2-[2-[[6-methoxy-5-[2-[(trimethylammonio)methyl]morpholine-4-carbonyl]-1,3-benzothiazol-2-yl]methylcarbamoyl]indan-2-yl]acetate]	50 to 200	60 to 80
CN1CCN(C(=O)COc2ccc3sc(CNC(=O)C4(CC(=O)O)Cc5ccccc5C4)nc3c2)CC1 [Example 24, 2-[2-[[5-[2-(4-methylpiperazin-1-yl)-2-oxo-ethoxy]-1,3-benzothiazol-2-yl]methylcarbamoyl]indan-2-yl]acetic acid]	200 to 10000	60 to 80
COc1cc2sc(CNC(=O)C3(CC(=O)[O-])Cc4cc(F)c(F)cc4C3)nc2cc1OCCC[N+](C)(C)CCO [Example 21, 2-[5,6-difluoro-2-[[5-[3-[2-hydroxyethyl(dimethyl)ammonio]propoxy]-6-methoxy-1,3-benzothiazol-2-yl]methylcarbamoyl]indan-2-yl]acetate]	< 50	> 80
COc1cc2sc(CNC(=O)C3(CC(=O)O)Cc4ccccc4C3)nc2cc1C(=O)N1CC(N(C)C)C1 [Example 36, 2-[2-[[5-[3-(dimethylamino)azetidine-1-carbonyl]-6-methoxy-1,3-benzothiazol-2-yl]methylcarbamoyl]indan-2-yl]acetic acid]	< 50	> 80
